The source made the active and inactive calls. The rule behind the calls is not given here.
How the values were obtained:
[1] = target: ATP-dependent translocase ABCB1 (Homo sapiens, UniProt P08183); test: Inhibition of MDR1 expressed in MDCK cells using rhodamine 123 staining by flow cytometry; format: cell-based
[2] = target: T1, Broad substrate specificity ATP-binding cassette transporter ABCG2 (Homo sapiens, UniProt Q9UNQ0); test: Inhibition of BCRP expressed in MCF-7 MX cells using Hoechst 33342 staining; format: cell-based, MCF7; settings: read-out: IC50
T1 sequence (Q9UNQ0 whole entry): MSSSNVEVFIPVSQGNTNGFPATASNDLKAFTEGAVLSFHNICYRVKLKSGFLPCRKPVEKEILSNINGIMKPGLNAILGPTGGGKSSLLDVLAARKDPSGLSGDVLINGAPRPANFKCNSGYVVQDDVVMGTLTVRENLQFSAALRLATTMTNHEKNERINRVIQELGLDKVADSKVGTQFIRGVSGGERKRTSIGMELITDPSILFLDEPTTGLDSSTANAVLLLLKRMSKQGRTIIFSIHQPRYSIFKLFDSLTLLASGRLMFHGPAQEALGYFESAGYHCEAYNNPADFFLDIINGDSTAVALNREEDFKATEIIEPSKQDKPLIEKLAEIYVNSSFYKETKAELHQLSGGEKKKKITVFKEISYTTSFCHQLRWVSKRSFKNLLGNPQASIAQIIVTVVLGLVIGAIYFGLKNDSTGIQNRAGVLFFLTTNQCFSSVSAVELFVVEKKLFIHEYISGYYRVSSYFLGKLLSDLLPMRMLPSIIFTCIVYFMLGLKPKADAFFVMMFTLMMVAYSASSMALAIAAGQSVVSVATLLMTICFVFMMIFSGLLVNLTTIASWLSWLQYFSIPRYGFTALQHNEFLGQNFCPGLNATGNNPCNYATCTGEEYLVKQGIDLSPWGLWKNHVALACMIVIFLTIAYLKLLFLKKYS

A2780 = test: Cytotoxicity against human A2780 cells assessed as intracellular ATP level at 10 uM after 72 hrs by luminometry; format: functional, cell-based
MCF7 = test: Cytotoxicity against human MCF7 cells assessed as intracellular ATP level at 10 uM after 72 hrs by luminometry; format: functional, cell-based
[3] = target: Multidrug resistance-associated protein 1 (Homo sapiens, UniProt P33527); test: Inhibition of MRP1 expressed in human 2008 cells assessed as calcein AM accumulation by cell based assay
Multidrug resistance-associated protein 1, sequence (P33527 whole entry): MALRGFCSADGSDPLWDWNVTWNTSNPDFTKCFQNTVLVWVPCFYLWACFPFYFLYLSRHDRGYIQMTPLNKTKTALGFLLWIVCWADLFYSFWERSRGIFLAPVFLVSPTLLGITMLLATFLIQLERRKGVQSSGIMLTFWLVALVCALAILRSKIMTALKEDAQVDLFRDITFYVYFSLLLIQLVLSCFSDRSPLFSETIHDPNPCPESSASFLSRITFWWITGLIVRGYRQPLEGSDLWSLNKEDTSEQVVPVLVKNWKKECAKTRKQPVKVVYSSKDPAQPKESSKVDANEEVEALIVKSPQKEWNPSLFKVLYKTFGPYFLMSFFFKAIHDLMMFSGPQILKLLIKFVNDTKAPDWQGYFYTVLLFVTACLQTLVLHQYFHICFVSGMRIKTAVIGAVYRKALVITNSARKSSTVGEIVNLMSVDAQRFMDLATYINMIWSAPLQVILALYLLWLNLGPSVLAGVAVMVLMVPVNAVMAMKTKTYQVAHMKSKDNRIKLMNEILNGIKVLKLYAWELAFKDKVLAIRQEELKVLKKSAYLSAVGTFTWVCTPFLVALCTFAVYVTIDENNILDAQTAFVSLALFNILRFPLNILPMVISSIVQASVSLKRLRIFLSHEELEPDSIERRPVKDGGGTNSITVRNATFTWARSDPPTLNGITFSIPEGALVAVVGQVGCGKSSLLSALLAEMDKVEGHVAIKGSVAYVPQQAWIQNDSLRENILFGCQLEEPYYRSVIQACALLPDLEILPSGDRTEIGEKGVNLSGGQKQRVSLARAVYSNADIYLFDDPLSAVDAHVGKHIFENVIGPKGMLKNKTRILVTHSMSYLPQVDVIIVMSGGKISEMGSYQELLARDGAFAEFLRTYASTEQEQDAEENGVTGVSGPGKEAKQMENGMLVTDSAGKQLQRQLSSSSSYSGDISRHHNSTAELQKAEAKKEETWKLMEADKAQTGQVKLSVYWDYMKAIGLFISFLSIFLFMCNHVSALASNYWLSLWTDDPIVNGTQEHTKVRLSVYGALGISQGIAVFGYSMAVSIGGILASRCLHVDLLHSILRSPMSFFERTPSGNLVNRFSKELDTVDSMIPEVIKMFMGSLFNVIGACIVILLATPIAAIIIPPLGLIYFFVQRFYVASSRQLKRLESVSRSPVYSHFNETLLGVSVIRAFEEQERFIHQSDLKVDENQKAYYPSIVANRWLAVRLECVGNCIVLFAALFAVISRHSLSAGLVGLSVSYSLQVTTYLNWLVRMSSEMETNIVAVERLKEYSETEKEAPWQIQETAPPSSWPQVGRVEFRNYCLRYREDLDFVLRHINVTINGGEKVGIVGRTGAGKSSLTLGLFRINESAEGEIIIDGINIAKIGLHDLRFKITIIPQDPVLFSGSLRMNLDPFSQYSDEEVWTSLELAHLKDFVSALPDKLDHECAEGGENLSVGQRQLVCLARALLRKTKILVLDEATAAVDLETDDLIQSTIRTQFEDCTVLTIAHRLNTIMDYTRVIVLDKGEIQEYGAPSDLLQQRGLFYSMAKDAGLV

A2780 ADR = test: Inhibition of P-gp expressed in A2780adr cells at 10 uM by calcein AM accumulation assay relative to verapamil; format: cell-based
[4] = Inhibition of P-gp expressed in A2780adr cells by calcein AM accumulation assay; format: cell-based; settings: A2780 ADR
[5] = target: T1, Broad substrate specificity ATP-binding cassette transporter ABCG2; test: Inhibition of BCRP expressed in MDCK cells using Hoechst 33342 staining; format: cell-based; settings: read-out: IC50

ATP-dependent translocase ABCB1, sequence (P08183 whole entry): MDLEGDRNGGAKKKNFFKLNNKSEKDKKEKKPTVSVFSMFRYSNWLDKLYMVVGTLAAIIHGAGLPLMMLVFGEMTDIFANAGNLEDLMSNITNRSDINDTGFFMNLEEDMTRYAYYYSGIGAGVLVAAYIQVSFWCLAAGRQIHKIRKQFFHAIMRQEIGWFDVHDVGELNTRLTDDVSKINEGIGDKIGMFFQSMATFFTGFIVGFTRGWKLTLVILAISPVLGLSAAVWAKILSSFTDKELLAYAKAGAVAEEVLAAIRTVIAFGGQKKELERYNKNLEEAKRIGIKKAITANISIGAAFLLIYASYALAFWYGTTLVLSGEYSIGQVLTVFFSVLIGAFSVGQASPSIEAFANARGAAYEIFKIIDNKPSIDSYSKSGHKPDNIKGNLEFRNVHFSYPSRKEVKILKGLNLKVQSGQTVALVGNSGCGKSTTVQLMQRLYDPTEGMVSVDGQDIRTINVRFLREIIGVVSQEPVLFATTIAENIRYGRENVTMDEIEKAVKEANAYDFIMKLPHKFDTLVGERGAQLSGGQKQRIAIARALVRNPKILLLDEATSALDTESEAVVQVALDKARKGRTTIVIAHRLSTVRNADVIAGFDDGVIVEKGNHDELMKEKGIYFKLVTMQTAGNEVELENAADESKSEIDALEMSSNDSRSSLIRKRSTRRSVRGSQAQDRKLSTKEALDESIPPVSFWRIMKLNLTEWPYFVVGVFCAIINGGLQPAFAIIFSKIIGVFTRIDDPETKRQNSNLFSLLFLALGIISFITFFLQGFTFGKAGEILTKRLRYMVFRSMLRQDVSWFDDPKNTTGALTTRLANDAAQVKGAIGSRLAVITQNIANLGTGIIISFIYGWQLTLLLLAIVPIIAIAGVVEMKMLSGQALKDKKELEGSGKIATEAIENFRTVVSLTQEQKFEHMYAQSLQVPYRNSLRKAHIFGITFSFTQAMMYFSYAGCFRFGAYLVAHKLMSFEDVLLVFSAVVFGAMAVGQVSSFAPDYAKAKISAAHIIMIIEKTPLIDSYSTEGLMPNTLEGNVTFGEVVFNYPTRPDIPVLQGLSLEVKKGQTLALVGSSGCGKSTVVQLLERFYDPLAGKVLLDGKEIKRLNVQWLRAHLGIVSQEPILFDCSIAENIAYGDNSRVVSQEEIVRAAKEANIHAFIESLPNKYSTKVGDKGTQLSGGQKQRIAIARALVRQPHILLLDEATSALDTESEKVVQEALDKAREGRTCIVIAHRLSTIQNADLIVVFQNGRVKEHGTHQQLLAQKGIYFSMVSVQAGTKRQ

| SMILES | IC50 [1] [µM] | IC50 [2] [µM] | Activity (A2780) | Activity (MCF7) | IC50 [3] [µM] | inhibition (A2780 ADR) | IC50 [4] [µM] | IC50 [5] [µM] |
| --- | --- | --- | --- | --- | --- | --- | --- | --- |
| COc1cc(O)c2c(=O)c(OC)c(-c3ccc(OC)c(O)c3)oc2c1 [AYANIN] | 13 | 0.68 | inactive | inactive | 50 | inactive | 9.4 | 0.46 |
| COc1ccc2c(c1)c(CC(=O)O)c(C)n2C(=O)c1ccc(Cl)cc1 [INDOMETHACIN] |  |  |  |  | 12.6 |  |  |  |
| COc1cc(O)c2c(=O)c(OC)c(-c3ccc(OC)c(OC)c3)oc2c1 [RETUSIN] | 16 | 0.9 | inactive | inactive | 50 | inactive | 12 | 0.39 |

Reference: ChEMBL document CHEMBL1681785, “Structure-activity relationships of flavonoids as inhibitors of breast cancer resistance protein (BCRP)” (Bioorg Med Chem, 2011)
